Results published in patent publication US20230181624A1, “COMPOSITIONS AND METHODS FOR TREATMENT OF GASTROINTESTINAL BLEEDING” (Intact Therapeutics, Inc., priority 2020, published 2023).

Tests used:
[1] = Drug release from solidified Poloxamer 407 thermogel; assay type: physicochemical; details: within 3 hours
Excerpt: The properties of thermogels based on Poloxamer 407 were investigated. Poloxamer 407 has a molecular weight of 12,000 Da and a PEO/PPO ratio of 2:1 by weight, and it is Generally Recognized As Safe (GRAS) by the FDA.

[2] = tested on: mouse tail; experiment: Mouse tail-snip assay (bleeding time); assay type: in vivo; details: amputated tail submerged in 1.5 ml of test formulation; compared with water
Procedure: A formulation of the invention was tested for the ability to prevent bleeding using a mouse tail-snip assay. A portion of tail one centimeter in length was amputated from an anesthetized mouse, and the remaining portion of the tail was immediately submerged in 1.5 ml of test formulation. Bleeding time was recorded as time from amputation to complete cessation of bleeding. The following formulations were tested: water; a solution of 5% tranexamic acid (TXA) in water; a gelled formulation containing Poloxamer 407 (TDP); and a gelled formulation containing 5% tranexamic acid and TDP. Each formulation was tested on seven animals total over the course of three experiments.
FIG. 8 is a graph showing bleeding time of mouse tails exposed to various formulations in a mouse tail-snip assay. *P<0.05, **P<0.01, ***P<0.001, ****P<0.0001, based on one-way ANOVA with the Tukey post-test.

SMILES	drug being delivered [1] [%]	bleeding time [2]
CCN(CC)CC(=O)Nc1c(C)cccc1C [lidocaine]	~60	–
NC[C@H]1CC[C@H](C(=O)O)CC1 [TXA, tranexamic acid]	–	decrease bleeding time
